Experimental data: patent US8748111B2, “Multiplexed olfactory receptor-based microsurface plasmon polariton detector” (Massachusetts Institute of Technology, priority 2008, dated 2014)
Where “and” joins values, the source holds several entries; their conditions need not be identical. Equal entries are not always repeated. Entries after “also recorded” stand apart in the source; their conditions may differ.

Legend:
hOR17-4 [1] = target: T1, hOR17-4 (Homo sapiens, UniProt P34982, R25Q); test: Intracellular calcium-ion mobility assay in induced HEK293S cells; type: cell-based; design: of which 969 by code for the 323 amino acid hOR17-4-GlyGly-rho1D4 protein; made in house; conditions: for cytosolic Ca2+ response to odorant: Fura-Red
T1 sequence (P34982 with tags, fused parts or gaps R25Q): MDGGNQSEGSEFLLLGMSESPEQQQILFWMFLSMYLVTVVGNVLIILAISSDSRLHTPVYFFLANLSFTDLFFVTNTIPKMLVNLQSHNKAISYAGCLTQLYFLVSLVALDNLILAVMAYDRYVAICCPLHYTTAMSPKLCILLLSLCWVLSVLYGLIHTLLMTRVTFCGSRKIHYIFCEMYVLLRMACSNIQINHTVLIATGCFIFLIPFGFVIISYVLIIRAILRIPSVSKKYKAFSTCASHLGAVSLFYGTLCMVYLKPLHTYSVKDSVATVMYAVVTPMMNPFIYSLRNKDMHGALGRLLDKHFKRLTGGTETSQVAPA
Protocol: To determine if receptors expressed at the surface of induced HEK293S rho5 cells was functional, we performed calcium-influx assays. In our heterologous HEK293S system, olfactory receptors can signal through the inositol triphosphate (IP3) pathway to release intracellular Ca2+, using the “promiscuous” G-protein Gαq.
HEK293S rho5 cells were seeded and grown on glass coverslips until they reached 80-90% confluency. Expression of hOR17-4 was then induced with media containing tetracycline (1 μg/ml) for 48 hours. Cells were then washed with PBS and loaded with the calcium sensitive dye Fluo-3 (Invitrogen) according to the manufacturers instructions. Coverslips were then mounted and visualized using time-lapse confocal microscopy. Experiments were conducted in PBS and odorant stocks were added by hand using a pipettor to final concentrations between 1-100 μM. Both specific and non-specific odorants were tested. As an additional control to test whether cells could increase internal calcium levels, 1 mM ATP was added.
The functional activity and specificity of hOR17-4 was probed in heterologous HEK293S cells by monitoring intracellular calcium-ion concentrations using time-lapse confocal microscopy (19). In our HEK293S cells, olfactory receptors can signal through the inositol triphosphate (IP3) pathway to release intracellular Ca^2+ from the ER, mediated by the “promiscuous” G-protein Gαq. Induced cells responded to the specific odorant bourgeonal at concentrations as low as 1 μM (FIG. 28). […] Importantly, nearly 100% of the cells were responsive to bourgeonal due to the stable-inducible nature of this system, a vast improvement over expression methods that relied on transient transfection with less than 5% of cells being responsive (3).
hOR17-4 expression in the stable HEK293S cell line was induced by 48-hour incubation in DMEM/F12 medium with GlutaMAX, supplemented with 1 μg/ml tetracycline. Then cells were loaded at 37° C. for 30 min with […] Fura-Red-AM (Molecular Probes) in serum-free DMEM/F12 medium and were subsequently washed with PBS and incubated in DMEM/F12 medium containing 10% FCS for 30 min to allow complete hydrolysis of intracellular Fura-Red-AM. Cytosolic Ca^2+ responses were recorded by confocal fluorescence microscopy (Zeiss LSM 510) using a water immersion objective (Zeiss Achroplan 63×, NA 1.2). Excitation was at 488 nm (Ar^+ laser); the 650 nm long pass emission filter was used to image Fura-Red at a rate of 1 image per second. Stock solutions of the tested odorants were prepared freshly in DMSO and diluted 1000-fold into PBS to give the desired concentrations.

hOR17-4 [2] = target: T1, hOR17-4; test: Surface plasmon resonance (Biacore A100) odorant binding assay, detergent-solubilized receptor from HEK293S cells; design: of which 969 by code for the 323 amino acid hOR17-4-GlyGly-rho1D4 protein; made in house; lysate supernatant captured on the chip; conditions: not rigorously determined due to low odorant solubility above 40 μM
Excerpt: First, the rho1D4 mAb was covalently attached to the dextran surface of a Biacore CM4 chip using standard amine-coupling chemistry. The hOR17-4 receptor protein was then non-covalently captured on the antibody via its C-terminal rho tag (TETSQVAPA (SEQ ID NO: 50)). Odorant ligands were then applied and odorant binding detected in real time via the mass-based refractive index change. […] Low affinity Biacore data is typically characterized by fast on- and off-rates, where curvature in the association and dissociation phase may not be observable. […] However, the sensorgram data shown reinforces the prediction of low, micromolar affinities for the two odorants.
All odorant binding experiments were performed at 25° C. on a Biacore™ A100 (GE Healthcare), which has a parallel flow configuration, allowing assay development (e.g., solubilization conditions) to be tested and optimized in parallel and multiplexed format. The sensor chip CM4, amine-coupling kit, HBS (10 mM Hepes, 0.15 M NaCl, pH 7.4) and PBS were from GE Healthcare. The detailed protocol (see Supporting Information) was adapted, with several key modifications, from that previously reported by Kaiser et al. (25). […]

hOR17-4 [3] = target: T2, hOR17-4 (Homo sapiens, UniProt P34982); test: Surface plasmon resonance (Biacore T100) odorant binding assay, cell-free produced receptor
T2 construct: made in house; host or cells: wheat germ cell-free extract (Roche RTS Wheat Germ CECF kit)
T2 sequence (P34982 1-312): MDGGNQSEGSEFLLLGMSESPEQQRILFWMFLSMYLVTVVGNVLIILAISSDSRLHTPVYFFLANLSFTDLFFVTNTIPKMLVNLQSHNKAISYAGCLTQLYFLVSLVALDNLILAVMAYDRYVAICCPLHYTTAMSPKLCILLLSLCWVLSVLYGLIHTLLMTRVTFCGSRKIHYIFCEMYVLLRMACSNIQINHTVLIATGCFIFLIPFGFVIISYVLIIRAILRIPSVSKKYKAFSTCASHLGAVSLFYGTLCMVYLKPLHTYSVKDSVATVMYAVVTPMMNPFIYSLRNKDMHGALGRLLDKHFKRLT
Protocol: All odorant binding experiments were performed on a Biacore™ T100 (GE Healthcare, Uppsala, Sweden) at 25° C. The sensor chip CM4, amine coupling kit, HBS (10 mM Hepes, 0.15 M NaCl, pH 7.4) and PBS were from (GE Healthcare, Uppsala, Sweden).
A anti His-tag antibody (R&D Systems, Minneapolis, Minn., USA) at 5 μg/ml in 10 mM sodium acetate pH 4.75 was immobilized onto a series S sensor chip using standard amine-coupling chemistry in HBS running buffer at 10 μl/min (33). The amount of coupled antibody was about 13000 RU. Control surfaces were prepared similarly without protein derivatization and utilized as a reference surfaces for compound binding experiments. Cell-free lysate containing the expressed olfactory receptor was centrifuged for […] at 14000×g at 4° C., to remove larger particles. The supernatant, containing about 0.6 mg/ml olfactory receptor, was immediately captured on the surface plasmon resonance (SPR) chip using PBS and 3% (v/v) DMSO as running buffer at 10 μl/min. […] A 30 sec pulse of coupling reagents was injected to achieve the stable baseline needed for the kinetic assay.
Fresh odorant undecanal solutions were made as follows. Pure odorant was diluted in DMSO to 0.5 M. This solution was diluted 33.3 times in PBS to obtain a […] odorant solution in running buffer with 3% (v/v) DMSO. […]

[4] = tetracycline-induced HEK293S cells

SMILES | cytosolic Ca2+ response to odorant (hOR17-4 [1]; [4]) | equilibrium dissociation constant (hOR17-4 [2]) | also measured
C/C=C/c1ccc(OC)cc1 [anithole] | No response |  | 
CC(C)(C)c1ccc(CCC=O)cc1 [bourgeonal] | transient Ca^2+ signaling |  | cells responsive to odorant (hOR17-4 [1]; stable-inducible HEK293S cells): ~100%; lowest odorant concentration giving a Ca2+ response (hOR17-4 [1]; tetracycline-induced HEK293S cells, confocal microscopy): ≤ 1 µM
CCc1ccc(CC(C)(C)C=O)cc1 [floralozone] |  | low micromolar range | 
CC(C=O)Cc1ccc(C(C)(C)C)cc1 (stereo not shown) [lilial] |  | low micromolar range | 
CCCCCCCC=O [octanal] | No response |  | 
CCCCCCCCCCC=O [undecanal] |  |  | Kd (hOR17-4 [3]; equilibrium binding responses vs concentration fitted to a simple binding isotherm, 25° C., 3% DMSO, read-out: affinity constant, KD): 22 µM and ~22 µM; dose response binding (RU) (hOR17-4 [3]; injections at 1.2, 3.7, 11, 33 and 100 uM): binding response increases by increasing odorant concentration; inhibition of bourgeonal-induced hOR17-4 activation (hOR17-4 [1]; preincubation and co-application of 100 μM with bourgeonal 100 μM): Odorant response could be blocked; also recorded: inhibited hOR17-4 activation by bourgeonal
